Test results published in ChEMBL document CHEMBL1649512, “Reduced susceptibility to cefepime among Escherichia coli clinical isolates producing novel variants of CMY-2 beta-lactamase” (2009).
In brackets after ≈: the same amount, converted by molar mass.

What was measured:
Format in all cases: functional
Escherichia coli [1] = assay: Antibacterial activity against Escherichia coli 1285 harboring beta-lactamase CMY-33 gene by Etest method
Escherichia coli [2] = assay: Antibacterial activity against Escherichia coli YD006 harboring beta-lactamase CMY-33 gene by Etest method
Escherichia coli [3] = assay: Antibacterial activity against Escherichia coli 34943 harboring beta-lactamase CMY-44 gene by Etest method
Escherichia coli [4] = assay: Antibacterial activity against Escherichia coli DH10B harboring plasmid BCSK carrying beta-lactamase CMY-33 gene by Etest method; conditions: K-12 DH10B
Escherichia coli [5] = assay: Antibacterial activity against Escherichia coli DH10B harboring plasmid BCSK carrying beta-lactamase CMY-44 gene by Etest method; conditions: K-12 DH10B
Escherichia coli [6] = assay: Antibacterial activity against Escherichia coli DH10B harboring plasmid BCSK carrying beta-lactamase CMY-2 gene by Etest method; conditions: K-12 DH10B
Escherichia coli [7] = assay: Antibacterial activity against Escherichia coli DH10B harboring plasmid BCSK by Etest method; conditions: K-12 DH10B

SMILES: CC1(C)S[C@@H]2[C@H](NC(=O)[C@H](N)c3ccccc3)C(=O)N2[C@H]1C(=O)O [AMPICILLIN]
- MIC (Escherichia coli [1]): > 256 µg/mL
- MIC (Escherichia coli [2]): 128 µg/mL (≈ 366 µM)
- MIC (Escherichia coli [3]): > 256 µg/mL
- MIC (Escherichia coli [4]): > 256 µg/mL
- MIC (Escherichia coli [5]): > 256 µg/mL
- MIC (Escherichia coli [6]): > 256 µg/mL
- MIC (Escherichia coli [7]): 3 µg/mL (≈ 8.59 µM)

SMILES: C[C@H]1[C@H](NC(=O)/C(=N\OC(C)(C)C(=O)O)c2csc(N)n2)C(=O)N1S(=O)(=O)O [AZTREONAM]
- MIC (Escherichia coli [1]): 64 µg/mL (≈ 147 µM)
- MIC (Escherichia coli [2]): 6 µg/mL (≈ 13.8 µM)
- MIC (Escherichia coli [3]): 24 µg/mL (≈ 55.1 µM)
- MIC (Escherichia coli [4]): 16 µg/mL (≈ 36.7 µM)
- MIC (Escherichia coli [5]): 4 µg/mL (≈ 9.19 µM)
- MIC (Escherichia coli [6]): 8 µg/mL (≈ 18.4 µM)

SMILES: CO/N=C(\C(=O)N[C@@H]1C(=O)N2C(C(=O)[O-])=C(C[N+]3(C)CCCC3)CS[C@H]12)c1csc(N)n1 [CEFEPIME]
- MIC (Escherichia coli [1]): 96 µg/mL (≈ 200 µM)
- MIC (Escherichia coli [2]): 6 µg/mL (≈ 12.5 µM)
- MIC (Escherichia coli [3]): 32 µg/mL (≈ 66.6 µM)
- MIC (Escherichia coli [4]): 6 µg/mL (≈ 12.5 µM)
- MIC (Escherichia coli [5]): 3 µg/mL (≈ 6.24 µM)
- MIC (Escherichia coli [6]): 0.25 µg/mL (≈ 0.52 µM)
- MIC (Escherichia coli [7]): 0.032 µg/mL (≈ 0.0666 µM)

SMILES: CO/N=C(\C(=O)N[C@@H]1C(=O)N2C(C(=O)O)=C(COC(C)=O)CS[C@H]12)c1csc(N)n1 [CEFOTAXIME]
- MIC (Escherichia coli [1]): > 256 µg/mL
- MIC (Escherichia coli [2]): 8 µg/mL (≈ 17.6 µM)
- MIC (Escherichia coli [3]): 32 µg/mL (≈ 70.3 µM)
- MIC (Escherichia coli [4]): 12 µg/mL (≈ 26.3 µM)
- MIC (Escherichia coli [5]): 8 µg/mL (≈ 17.6 µM)
- MIC (Escherichia coli [6]): 16 µg/mL (≈ 35.1 µM)
- MIC (Escherichia coli [7]): 0.064 µg/mL (≈ 0.141 µM)

SMILES: CO[C@@]1(NC(=O)Cc2cccs2)C(=O)N2C(C(=O)O)=C(COC(N)=O)CS[C@@H]21 [CEFOXITIN]
- MIC (Escherichia coli [1]): > 256 µg/mL
- MIC (Escherichia coli [2]): 24 µg/mL (≈ 56.1 µM)
- MIC (Escherichia coli [3]): > 256 µg/mL
- MIC (Escherichia coli [4]): 24 µg/mL (≈ 56.1 µM)
- MIC (Escherichia coli [5]): 32 µg/mL (≈ 74.9 µM)
- MIC (Escherichia coli [6]): > 256 µg/mL
- MIC (Escherichia coli [7]): 6 µg/mL (≈ 14 µM)

SMILES: CC(C)(O/N=C(\C(=O)N[C@@H]1C(=O)N2C(C(=O)[O-])=C(C[n+]3ccccc3)CS[C@H]12)c1csc(N)n1)C(=O)O [CEFTAZIDIME]
- MIC (Escherichia coli [1]): > 256 µg/mL
- MIC (Escherichia coli [2]): > 256 µg/mL
- MIC (Escherichia coli [3]): > 256 µg/mL
- MIC (Escherichia coli [4]): > 256 µg/mL
- MIC (Escherichia coli [5]): > 256 µg/mL
- MIC (Escherichia coli [6]): > 256 µg/mL
- MIC (Escherichia coli [7]): 0.5 µg/mL (≈ 0.915 µM)

SMILES: CO/N=C(\C(=O)N[C@@H]1C(=O)N2C(C(=O)O)=C(COC(N)=O)CS[C@H]12)c1ccco1 [CEFUROXIME]
- MIC (Escherichia coli [1]): > 256 µg/mL
- MIC (Escherichia coli [2]): 96 µg/mL (≈ 226 µM)
- MIC (Escherichia coli [3]): > 256 µg/mL
- MIC (Escherichia coli [4]): 128 µg/mL (≈ 302 µM)
- MIC (Escherichia coli [5]): 64 µg/mL (≈ 151 µM)
- MIC (Escherichia coli [6]): > 256 µg/mL
- MIC (Escherichia coli [7]): 6 µg/mL (≈ 14.1 µM)

SMILES: C[C@@H](O)[C@H]1C(=O)N2C(C(=O)O)=C(S[C@@H]3CN[C@H](C(=O)Nc4cccc(C(=O)O)c4)C3)[C@H](C)[C@H]12 [ERTAPENEM]
- MIC (Escherichia coli [1]): 1 µg/mL (≈ 2.1 µM)
- MIC (Escherichia coli [2]): 0.064 µg/mL (≈ 0.135 µM)
- MIC (Escherichia coli [3]): 4 µg/mL (≈ 8.41 µM)
- MIC (Escherichia coli [4]): 0.032 µg/mL (≈ 0.0673 µM)
- MIC (Escherichia coli [5]): 0.064 µg/mL (≈ 0.135 µM)
- MIC (Escherichia coli [6]): 0.094 µg/mL (≈ 0.198 µM)
- MIC (Escherichia coli [7]): 0.012 µg/mL (≈ 0.0252 µM)

SMILES: CCN1CCN(C(=O)N[C@@H](C(=O)N[C@@H]2C(=O)N3[C@@H]2SC(C)(C)[C@@H]3C(=O)O)c2ccccc2)C(=O)C1=O [PIPERACILLIN]
- MIC (Escherichia coli [1]): > 256 µg/mL
- MIC (Escherichia coli [2]): 12 µg/mL (≈ 23.2 µM)
- MIC (Escherichia coli [3]): > 256 µg/mL
- MIC (Escherichia coli [4]): 64 µg/mL (≈ 124 µM)
- MIC (Escherichia coli [5]): 32 µg/mL (≈ 61.8 µM)
- MIC (Escherichia coli [6]): 128 µg/mL (≈ 247 µM)
- MIC (Escherichia coli [7]): 2 µg/mL (≈ 3.86 µM)
